From US6569638B1, “Method for screening compounds for the treatment of neoplasia” (Cell Pathways, Inc, priority 2000, dated 2003) come the findings set out here.

Series [1] can be described thus: Safety evaluation in exisulind clinical trials. Format: in vivo. The procedure: In these exisulind trials and several others involving the drug in other indications, safety was evaluated by monitoring adverse events (AEs), clinical laboratory tests (hematology, serum chemistry, and urinalysis), vital signs (blood pressure, pulse rate, respiratory rate, temperature, and weight), physical examination, and upper endoscopy.

The subject of series [2] is SW-480 colon adenocarcinoma cells. In words: DNA fragmentation (Cell Death Detection ELISA). Format: cell-based, human. The protocol:
Samples are then analyzed.
For orientation: ELISA stands for enzyme-linked immunosorbent assay.

Series [3] deals with Molt-4. In words: Neutral red growth inhibition. Format: cell-based, human. To be noted: Molt-4, Leukemia, HCl salt. The protocol: Compound B's activity is not confined to activity against colon cancer cell lines or animal models of colon cancer. It has a broad range of anti-neoplastic effects in various neoplastic cell lines. Various types of human cancer cell lines were propagated under sterile conditions in RPMI 1640 medium with 10% fetal bovine serum, 2 mM L-glutamine and sodium bicarbonate. To determine growth inhibitory effects of Compound B, cells were seeded in 96-well plates at a density of 1000 cells per well. […] The effect of the drug on tumor cell growth was determined using the neutral red cytotoxicity assay following five days of continuous treatment. Neutral red is a dye that is selectively taken up by viable cells by an ATP-dependent transport mechanism.

`CC1=C(CC(=O)O)c2cc(F)ccc2/C1=C\c1ccc(S(C)(=O)=O)cc1` [exisulind, 5-fluoro-2-methyl-1-(p-methylsulfonylbenzylidene)-3-indenylacetic acid]: the “safety findings in clinical trials” value in series [1] (human, in vivo) was “No outstanding safety issues have been demonstrated”. Further, the results for the “maximum tolerated dose (MTD)” value in series [1] (patients with intact colons), in series [1] (patients with subtotal colectomy) and in series [1] (pediatric patients) were 400 mg, 600 mg and 350 mg, respectively.

As usually defined, the EC50 is the concentration that produces a half-maximal response. The low end stands for an effect from little substance, the high end for a need for much substance. Broadly, the GI50 is the concentration that inhibits growth by half. `CC1=C(CC(=O)NCc2ccccc2)c2cc(F)ccc2/C1=C\c1ccncc1.Cl` [Compound B, (Z)-5-fluoro-2-methyl-(4-pyridylidene)-3-(N-benzyl)indenylacetamide hydrochloride]: in series [2], the EC50 was found to be 15 µM. For the same molecule, the GI50 in series [3] amounted to 1.6 µM.
